Results from ChEMBL document CHEMBL5653631, “A Potent and Selective ULK1 Inhibitor Suppresses Autophagy and Sensitizes Cancer Cells to Nutrient Stress” (iScience, 2018).

Tests used:
[1] = molecular target: LIM domain kinase 1 (Homo sapiens) (UniProt P53667); test: Inhibition of human recombinant LIMK1 at 500 nM in presence of ATP by radiometric assay relative to control
[2] = molecular target: Calcium/calmodulin-dependent protein kinase type II subunit gamma (Homo sapiens) (UniProt Q13555); test: Inhibition of human recombinant CaMK2g at 500 nM in presence of ATP by radiometric assay relative to control
Calcium/calmodulin-dependent protein kinase type II subunit gamma (Homo sapiens), sequence (Q13555 whole entry): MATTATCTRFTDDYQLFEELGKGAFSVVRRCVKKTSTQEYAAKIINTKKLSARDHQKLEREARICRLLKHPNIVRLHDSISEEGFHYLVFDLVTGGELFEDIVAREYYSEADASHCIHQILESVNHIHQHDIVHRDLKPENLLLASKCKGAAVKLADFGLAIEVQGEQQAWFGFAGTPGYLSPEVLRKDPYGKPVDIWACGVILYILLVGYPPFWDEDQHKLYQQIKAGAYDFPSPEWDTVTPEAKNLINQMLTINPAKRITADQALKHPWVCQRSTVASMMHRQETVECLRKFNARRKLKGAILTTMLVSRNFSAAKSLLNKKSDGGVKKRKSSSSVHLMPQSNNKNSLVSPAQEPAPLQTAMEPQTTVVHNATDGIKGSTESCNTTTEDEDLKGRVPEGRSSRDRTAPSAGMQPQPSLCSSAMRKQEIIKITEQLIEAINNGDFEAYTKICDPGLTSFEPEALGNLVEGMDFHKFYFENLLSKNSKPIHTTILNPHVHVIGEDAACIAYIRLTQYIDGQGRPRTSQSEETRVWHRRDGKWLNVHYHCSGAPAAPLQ

[3] = molecular target: T1, Eukaryotic elongation factor 2 kinase (Homo sapiens) (UniProt O00418); test: Inhibition of human recombinant eEF2K at 500 nM in presence of ATP by radiometric assay relative to control
T1 sequence (whole entry): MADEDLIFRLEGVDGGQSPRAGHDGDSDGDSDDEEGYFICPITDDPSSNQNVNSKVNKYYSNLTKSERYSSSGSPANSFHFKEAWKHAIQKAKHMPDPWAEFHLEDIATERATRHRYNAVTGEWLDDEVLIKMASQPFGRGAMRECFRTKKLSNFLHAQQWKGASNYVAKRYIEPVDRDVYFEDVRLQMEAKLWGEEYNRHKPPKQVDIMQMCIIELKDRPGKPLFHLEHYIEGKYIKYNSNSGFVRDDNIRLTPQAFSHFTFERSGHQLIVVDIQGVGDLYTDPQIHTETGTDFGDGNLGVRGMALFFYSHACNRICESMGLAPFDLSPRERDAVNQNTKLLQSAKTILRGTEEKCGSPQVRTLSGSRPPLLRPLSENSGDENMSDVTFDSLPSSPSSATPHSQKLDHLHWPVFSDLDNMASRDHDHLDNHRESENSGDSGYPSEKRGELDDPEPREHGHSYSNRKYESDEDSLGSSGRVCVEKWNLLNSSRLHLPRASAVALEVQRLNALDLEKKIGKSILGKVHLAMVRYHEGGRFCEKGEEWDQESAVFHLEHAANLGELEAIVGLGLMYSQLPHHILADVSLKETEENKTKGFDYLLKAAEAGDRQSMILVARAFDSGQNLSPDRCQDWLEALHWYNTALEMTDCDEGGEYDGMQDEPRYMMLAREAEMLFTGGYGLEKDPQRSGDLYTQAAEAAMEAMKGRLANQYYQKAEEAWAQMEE

[4] = molecular target: Serine/threonine-protein kinase N1 (Homo sapiens) (UniProt Q16512); test: Inhibition of human recombinant PKN1 at 500 nM in presence of ATP by radiometric assay relative to control
Serine/threonine-protein kinase N1 (Homo sapiens), sequence (Q16512 2-942 limits assumed): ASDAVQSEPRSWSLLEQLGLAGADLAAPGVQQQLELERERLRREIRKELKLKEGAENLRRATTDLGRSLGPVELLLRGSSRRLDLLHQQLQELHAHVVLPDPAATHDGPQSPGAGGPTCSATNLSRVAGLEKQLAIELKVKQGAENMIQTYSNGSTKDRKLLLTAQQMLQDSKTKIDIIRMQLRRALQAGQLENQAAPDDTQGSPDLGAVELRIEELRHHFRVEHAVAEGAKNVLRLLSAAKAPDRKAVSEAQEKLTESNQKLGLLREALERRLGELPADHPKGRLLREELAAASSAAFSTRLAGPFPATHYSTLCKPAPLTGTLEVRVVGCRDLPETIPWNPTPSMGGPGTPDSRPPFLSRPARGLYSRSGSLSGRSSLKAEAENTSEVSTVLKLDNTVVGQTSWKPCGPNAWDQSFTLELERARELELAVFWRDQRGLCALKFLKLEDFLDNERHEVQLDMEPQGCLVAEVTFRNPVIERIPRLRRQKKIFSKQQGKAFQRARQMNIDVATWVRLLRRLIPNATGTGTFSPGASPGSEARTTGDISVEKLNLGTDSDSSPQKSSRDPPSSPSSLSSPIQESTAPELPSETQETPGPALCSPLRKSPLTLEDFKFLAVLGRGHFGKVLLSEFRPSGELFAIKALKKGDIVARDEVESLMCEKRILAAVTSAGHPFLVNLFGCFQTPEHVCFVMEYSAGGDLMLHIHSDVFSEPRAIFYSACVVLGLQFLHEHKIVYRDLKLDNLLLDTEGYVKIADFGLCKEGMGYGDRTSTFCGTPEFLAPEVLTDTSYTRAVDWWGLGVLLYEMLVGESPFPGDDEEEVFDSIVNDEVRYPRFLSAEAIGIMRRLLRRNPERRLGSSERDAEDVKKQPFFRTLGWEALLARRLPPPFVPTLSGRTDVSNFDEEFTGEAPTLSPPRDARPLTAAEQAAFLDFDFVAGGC

[5] = molecular target: T2, Tyrosine-protein kinase receptor TYRO3 (Homo sapiens) (UniProt Q06418); test: Inhibition of human recombinant TYRO3 at 500 nM in presence of ATP by radiometric assay relative to control
T2 sequence (whole entry): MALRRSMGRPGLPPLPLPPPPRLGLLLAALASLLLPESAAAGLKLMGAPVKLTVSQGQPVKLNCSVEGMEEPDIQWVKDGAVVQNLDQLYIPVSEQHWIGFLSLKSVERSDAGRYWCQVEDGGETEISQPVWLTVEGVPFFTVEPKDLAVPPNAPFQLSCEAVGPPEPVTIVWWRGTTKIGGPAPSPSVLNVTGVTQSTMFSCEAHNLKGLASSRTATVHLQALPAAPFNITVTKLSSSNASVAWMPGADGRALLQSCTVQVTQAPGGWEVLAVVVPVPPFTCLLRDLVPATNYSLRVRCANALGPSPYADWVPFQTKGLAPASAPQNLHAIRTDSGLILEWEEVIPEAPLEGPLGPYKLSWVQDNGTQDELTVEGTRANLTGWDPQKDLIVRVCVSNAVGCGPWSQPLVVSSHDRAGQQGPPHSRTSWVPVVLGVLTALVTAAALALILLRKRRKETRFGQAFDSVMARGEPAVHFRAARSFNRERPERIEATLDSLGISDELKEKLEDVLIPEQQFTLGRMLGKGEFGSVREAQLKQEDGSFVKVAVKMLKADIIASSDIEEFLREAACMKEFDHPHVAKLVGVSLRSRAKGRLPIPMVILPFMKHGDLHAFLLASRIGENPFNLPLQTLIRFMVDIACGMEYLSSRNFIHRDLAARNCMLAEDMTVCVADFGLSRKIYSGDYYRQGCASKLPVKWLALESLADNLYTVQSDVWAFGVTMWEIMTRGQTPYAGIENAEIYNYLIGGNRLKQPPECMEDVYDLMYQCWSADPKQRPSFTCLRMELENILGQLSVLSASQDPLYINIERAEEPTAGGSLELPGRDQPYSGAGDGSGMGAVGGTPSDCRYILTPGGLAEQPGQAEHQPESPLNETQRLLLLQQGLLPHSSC

[6] = molecular target: Ephrin type-A receptor 4 (Homo sapiens) (UniProt P54764); test: Inhibition of human recombinant EphA4 at 500 nM related to control ULK1
Ephrin type-A receptor 4 (Homo sapiens), sequence (P54764 whole entry): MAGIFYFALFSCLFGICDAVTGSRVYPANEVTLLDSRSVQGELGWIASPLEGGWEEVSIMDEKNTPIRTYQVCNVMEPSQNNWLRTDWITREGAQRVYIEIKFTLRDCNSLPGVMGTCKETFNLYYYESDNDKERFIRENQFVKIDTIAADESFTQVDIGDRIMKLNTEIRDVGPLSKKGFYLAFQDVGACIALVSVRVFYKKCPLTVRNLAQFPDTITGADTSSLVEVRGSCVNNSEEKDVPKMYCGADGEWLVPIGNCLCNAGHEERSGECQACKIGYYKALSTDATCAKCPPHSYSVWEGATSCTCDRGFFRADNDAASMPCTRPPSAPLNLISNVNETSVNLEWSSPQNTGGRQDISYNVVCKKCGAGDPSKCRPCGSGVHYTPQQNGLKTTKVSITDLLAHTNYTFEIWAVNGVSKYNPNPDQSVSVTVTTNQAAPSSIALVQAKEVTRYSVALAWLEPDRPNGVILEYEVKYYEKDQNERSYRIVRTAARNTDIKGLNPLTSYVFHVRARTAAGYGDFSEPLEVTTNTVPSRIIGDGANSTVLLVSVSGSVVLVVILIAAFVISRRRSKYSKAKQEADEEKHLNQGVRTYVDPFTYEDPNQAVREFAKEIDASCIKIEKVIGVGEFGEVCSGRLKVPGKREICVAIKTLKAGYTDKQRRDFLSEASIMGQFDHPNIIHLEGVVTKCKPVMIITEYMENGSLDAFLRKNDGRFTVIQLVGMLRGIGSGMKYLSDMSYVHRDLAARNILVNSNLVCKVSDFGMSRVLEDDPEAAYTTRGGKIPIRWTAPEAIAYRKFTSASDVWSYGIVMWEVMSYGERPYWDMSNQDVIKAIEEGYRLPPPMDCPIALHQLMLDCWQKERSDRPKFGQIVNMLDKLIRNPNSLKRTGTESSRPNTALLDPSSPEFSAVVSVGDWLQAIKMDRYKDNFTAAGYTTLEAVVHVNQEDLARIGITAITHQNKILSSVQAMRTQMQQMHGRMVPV

[7] = molecular target: Leucine-rich repeat serine/threonine-protein kinase 2 (Homo sapiens) (UniProt Q5S007); test: Inhibition of human recombinant LRRK2 at 15 nM in presence of ATP by radiometric assay relative to control
[8] = molecular target: Serine/threonine-protein kinase WNK1 (Homo sapiens) (UniProt Q9H4A3); test: Inhibition of human recombinant Wnk1 at 15 nM related to control ULK1
[9] = molecular target: T3, Dual specificity tyrosine-phosphorylation-regulated kinase 3 (Homo sapiens) (UniProt O43781); test: Inhibition of human recombinant DYRK3 at 15 nM related to control ULK1
T3 sequence (whole entry): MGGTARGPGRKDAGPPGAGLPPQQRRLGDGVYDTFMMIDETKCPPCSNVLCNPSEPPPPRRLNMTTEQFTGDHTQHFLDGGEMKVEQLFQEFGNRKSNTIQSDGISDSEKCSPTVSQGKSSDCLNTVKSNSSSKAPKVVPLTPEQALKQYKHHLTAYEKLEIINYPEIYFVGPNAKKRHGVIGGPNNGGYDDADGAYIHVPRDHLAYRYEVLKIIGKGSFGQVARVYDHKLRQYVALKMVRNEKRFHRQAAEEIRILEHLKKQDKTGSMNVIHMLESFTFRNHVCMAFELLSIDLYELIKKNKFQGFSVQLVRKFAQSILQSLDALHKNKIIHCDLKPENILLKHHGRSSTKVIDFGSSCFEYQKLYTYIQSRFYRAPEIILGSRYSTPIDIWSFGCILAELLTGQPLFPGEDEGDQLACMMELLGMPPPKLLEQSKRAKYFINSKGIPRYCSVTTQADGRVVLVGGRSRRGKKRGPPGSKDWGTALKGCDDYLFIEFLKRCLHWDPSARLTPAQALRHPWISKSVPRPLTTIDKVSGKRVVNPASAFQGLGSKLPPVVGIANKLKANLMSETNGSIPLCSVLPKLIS

[10] = molecular target: Mitogen-activated protein kinase 11 (Homo sapiens) (UniProt Q15759); test: Inhibition of human recombinant p38beta at 15 nM in presence of ATP by radiometric assay relative to control
Mitogen-activated protein kinase 11 (Homo sapiens), sequence (Q15759 whole entry): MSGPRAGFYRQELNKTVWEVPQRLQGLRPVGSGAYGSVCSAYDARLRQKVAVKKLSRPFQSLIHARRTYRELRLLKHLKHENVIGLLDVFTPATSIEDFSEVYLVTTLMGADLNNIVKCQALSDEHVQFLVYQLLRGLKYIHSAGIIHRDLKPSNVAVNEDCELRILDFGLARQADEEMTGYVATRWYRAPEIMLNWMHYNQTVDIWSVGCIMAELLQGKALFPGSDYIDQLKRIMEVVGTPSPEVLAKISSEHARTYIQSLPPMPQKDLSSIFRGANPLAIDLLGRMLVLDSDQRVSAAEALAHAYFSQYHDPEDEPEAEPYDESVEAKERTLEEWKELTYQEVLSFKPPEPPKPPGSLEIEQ

[11] = molecular target: Homeodomain-interacting protein kinase 2 (Homo sapiens) (UniProt Q9H2X6); test: Inhibition of human recombinant HIPK2 at 40 nM related to control ULK1
Homeodomain-interacting protein kinase 2 (Homo sapiens), sequence (Q9H2X6 whole entry, looked up): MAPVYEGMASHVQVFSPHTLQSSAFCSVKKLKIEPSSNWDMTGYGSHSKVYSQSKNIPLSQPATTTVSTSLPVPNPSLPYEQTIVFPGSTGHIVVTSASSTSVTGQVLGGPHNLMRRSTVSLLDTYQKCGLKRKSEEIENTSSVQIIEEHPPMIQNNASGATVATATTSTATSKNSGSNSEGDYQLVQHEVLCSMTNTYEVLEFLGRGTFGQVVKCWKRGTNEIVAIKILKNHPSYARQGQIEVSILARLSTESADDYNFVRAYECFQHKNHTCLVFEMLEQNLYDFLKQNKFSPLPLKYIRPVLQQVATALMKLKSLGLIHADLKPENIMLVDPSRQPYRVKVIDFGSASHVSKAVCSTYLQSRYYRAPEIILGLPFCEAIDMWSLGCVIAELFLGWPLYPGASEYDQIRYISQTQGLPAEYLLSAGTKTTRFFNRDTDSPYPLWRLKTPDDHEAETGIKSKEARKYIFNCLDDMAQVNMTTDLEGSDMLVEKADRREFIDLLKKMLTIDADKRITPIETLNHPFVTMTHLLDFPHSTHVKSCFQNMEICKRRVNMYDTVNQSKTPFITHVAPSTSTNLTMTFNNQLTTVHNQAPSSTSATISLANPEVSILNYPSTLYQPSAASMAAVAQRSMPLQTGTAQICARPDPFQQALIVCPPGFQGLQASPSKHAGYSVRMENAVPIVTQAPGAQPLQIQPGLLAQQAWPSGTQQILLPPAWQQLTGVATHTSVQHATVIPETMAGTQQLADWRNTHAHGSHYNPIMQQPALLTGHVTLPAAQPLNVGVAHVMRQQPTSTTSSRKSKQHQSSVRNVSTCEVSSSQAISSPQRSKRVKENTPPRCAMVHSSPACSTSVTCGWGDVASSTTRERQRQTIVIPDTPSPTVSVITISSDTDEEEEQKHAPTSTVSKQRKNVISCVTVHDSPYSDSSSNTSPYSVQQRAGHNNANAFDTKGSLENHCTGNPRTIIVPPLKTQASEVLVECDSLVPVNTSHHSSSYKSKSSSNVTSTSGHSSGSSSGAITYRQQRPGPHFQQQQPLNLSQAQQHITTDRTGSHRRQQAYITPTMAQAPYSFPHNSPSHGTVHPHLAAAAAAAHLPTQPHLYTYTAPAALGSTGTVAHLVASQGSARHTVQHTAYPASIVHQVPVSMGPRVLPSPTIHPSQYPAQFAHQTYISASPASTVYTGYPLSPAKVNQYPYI

[12] = molecular target: Serine/threonine-protein kinase PAK 5 (Homo sapiens) (UniProt Q9P286); test: Inhibition of human recombinant PAK5 at 40 nM in presence of ATP by radiometric assay relative to control
Serine/threonine-protein kinase PAK 5 (Homo sapiens), sequence (Q9P286 whole entry, looked up): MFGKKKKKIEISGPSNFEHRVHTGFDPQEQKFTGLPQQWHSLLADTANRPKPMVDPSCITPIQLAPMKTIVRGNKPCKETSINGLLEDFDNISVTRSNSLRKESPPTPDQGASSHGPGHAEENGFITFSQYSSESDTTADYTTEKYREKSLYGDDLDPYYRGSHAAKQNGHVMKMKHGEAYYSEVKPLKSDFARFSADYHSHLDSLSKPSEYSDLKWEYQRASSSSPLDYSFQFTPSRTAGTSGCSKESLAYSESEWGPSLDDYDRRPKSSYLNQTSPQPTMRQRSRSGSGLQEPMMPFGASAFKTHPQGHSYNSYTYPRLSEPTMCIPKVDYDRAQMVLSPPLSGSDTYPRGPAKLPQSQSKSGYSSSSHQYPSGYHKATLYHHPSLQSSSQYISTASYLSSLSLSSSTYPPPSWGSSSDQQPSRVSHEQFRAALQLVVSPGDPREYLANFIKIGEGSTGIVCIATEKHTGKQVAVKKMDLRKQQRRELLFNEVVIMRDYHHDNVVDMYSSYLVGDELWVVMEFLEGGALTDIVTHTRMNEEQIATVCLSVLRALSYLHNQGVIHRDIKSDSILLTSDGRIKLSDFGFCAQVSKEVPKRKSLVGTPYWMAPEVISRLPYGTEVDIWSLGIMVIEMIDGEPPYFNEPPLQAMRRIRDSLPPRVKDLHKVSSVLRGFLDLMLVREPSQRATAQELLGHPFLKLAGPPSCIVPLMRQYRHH

## CNC(=O)c1ccccc1Oc1nc(Nc2cc(OC)c(OC)c(OC)c2)ncc1Br
[1]
  inhibition: 2%
[2]
  inhibition: 2%
[3]
  inhibition: 14%
[4]
  inhibition: 0%
[5]
  inhibition: 10%
[6]
  fold change (FC): 0.2

## CC(C)[C@H](NC(=O)c1cc(-c2cnn3cc(-c4ccc(OCCN5CCCCC5)cc4)cnc23)cs1)C(F)(F)F
[7]
  inhibition: 3%
[8]
  fold change (FC): 0.05
[9]
  fold change (FC): 0.26
[10]
  inhibition: 1%

## O=C(N[C@@H](C1CC1)C(F)(F)F)c1cc(-c2cnn3cc(-c4ccc(F)cc4)cnc23)cs1
[11]
  fold change (FC): 0
[12]
  inhibition: 0%
